# Test results as given in PMC7686313, “Phase 1 study of mTORC1/2 inhibitor sapanisertib (TAK-228) in advanced solid tumours, with an expansion phase in renal, endometrial or bladder cancer” (British Journal of Cancer, 2020).
# Where two headings read alike, the source gives them in different places.
# Assay: Plasma pharmacokinetics (LC-MS/MS)
# Type: in vivo, human
# Settings: human, plasma, oral
# Method: Peripheral blood was collected serially to quantify plasma levels of sapanisertib for PK analysis via validated liquid chromatography tandem mass spectrometry with an assay range of 1–1000 ng/mL (MicroConstants, San Diego, CA), during both dose-escalation and expansion phases. Blood samples were collected before each dose and 0.5, 1, 2, 4, 8 and 24 h after dosing on cycle 1, day 1 and cycle 2, day 1, in the dose-escalation phase. In the expansion phase, samples were collected predose and 2, 4 and 6 h postdose on cycle 1, day 1, and then predose and 2 h postdose on day 8, 15 or 22 of cycle 1.
compound,measurement,setting,value
CC(C)n1nc(-c2ccc3oc(N)nc3c2)c2c(N)ncnc21 [Sapanisertib],half-life,"9 mg, cycle 1, day 1, 9 mg, read-out: t½ (converted)",7.5 h
same,Cmax,"9 mg, cycle 2, day 1, QDx3dQW 9 mg",83.1 ng/mL
same,AUC(0-t),"9 mg, cycle 2, day 1, QDx3dQW 9 mg, read-out: AUC0–24h [%CV]",707 ng·h/mL
same,Tmax,"9 mg, cycle 2, day 1, QDx3dQW 9 mg, read-out: Tmax, median",2.1 h
same,half-life,"9 mg, cycle 2, day 1, QDx3dQW 9 mg, read-out: t½ (converted)",6.9 h
same,Cmax,"10 mg, cycle 1, day 1, 10 mg",48.4 ng/mL
same,AUC(0-t),"10 mg, cycle 1, day 1, 10 mg, read-out: AUC0–24h [%CV]",342 ng·h/mL
same,AUC(0-t),"10 mg, cycle 1, day 1, 10 mg, read-out: AUC0–last [%CV]",153 ng·h/mL
same,Tmax,"10 mg, cycle 1, day 1, 10 mg, read-out: Tmax, median",2.8 h
same,half-life,"10 mg, cycle 1, day 1, 10 mg, read-out: t½ (converted)",6.4 h
same,Cmax,"10 mg, cycle 2, day 1, QDx5dQW 10 mg",57 ng/mL
same,AUC(0-t),"10 mg, cycle 2, day 1, QDx5dQW 10 mg, read-out: AUC0–24h [%CV]",366 ng·h/mL
same,half-life,"10 mg, cycle 2, day 1, QDx5dQW 10 mg, read-out: t½ (converted)",5.7 h
same,Tmax,"10 mg, cycle 2, day 1, QW 10 mg, read-out: Tmax, median",2.9 h
same,Cmax,"12 mg, cycle 1, day 1, 12 mg",99.5 ng/mL
same,AUC(0-t),"12 mg, cycle 1, day 1, 12 mg, read-out: AUC0–24h [%CV]",730 ng·h/mL
same,half-life,"12 mg, cycle 1, day 1, 12 mg, read-out: t½ (converted)",7.4 h
same,Cmax,"12 mg, cycle 2, day 1, QDx3dQW 12 mg",113 ng/mL
same,AUC(0-t),"12 mg, cycle 2, day 1, QDx3dQW 12 mg, read-out: AUC0–24h [%CV]",707 ng·h/mL
same,Tmax,"12 mg, cycle 2, day 1, QDx3dQW 12 mg, read-out: Tmax, median",3.7 h
same,half-life,"12 mg, cycle 2, day 1, QDx3dQW 12 mg, read-out: t½ (converted)",4.9 h
same,Cmax,"13 mg, cycle 1, day 1, 13 mg",93.6 ng/mL
same,AUC(0-t),"13 mg, cycle 1, day 1, 13 mg, read-out: AUC0–24h [%CV]",953 ng·h/mL
same,Tmax,"13 mg, cycle 1, day 1, 13 mg, read-out: Tmax, median",2.1 h
same,half-life,"13 mg, cycle 1, day 1, 13 mg, read-out: t½ (converted)",8.7 h
same,Cmax,"15 mg, cycle 1, day 1, 15 mg",56.7 ng/mL
same,AUC(0-t),"15 mg, cycle 1, day 1, 15 mg, read-out: AUC0–24h [%CV]",518 ng·h/mL
same,half-life,"15 mg, cycle 1, day 1, 15 mg, read-out: t½ (converted)",9.4 h
same,Cmax,"15 mg, cycle 2, day 1, QW 15 mg",64.9 ng/mL
same,AUC(0-t),"15 mg, cycle 2, day 1, QW 15 mg, read-out: AUC0–24h [%CV]",604 ng·h/mL
same,Cmax,"16 mg, cycle 1, day 1, 16 mg",66.7 ng/mL
same,AUC(0-t),"16 mg, cycle 1, day 1, 16 mg, read-out: AUC0–24h [%CV]",689 ng·h/mL
same,Tmax,"16 mg, cycle 1, day 1, 16 mg, read-out: Tmax, median",2.1 h
same,half-life,"16 mg, cycle 1, day 1, 16 mg, read-out: t½ (converted)",7 h
same,Cmax,"16 mg, cycle 2, day 1, QDx3dQW 16 mg",92.1 ng/mL
same,AUC(0-t),"16 mg, cycle 2, day 1, QDx3dQW 16 mg, read-out: AUC0–24h [%CV]",744 ng·h/mL
same,Tmax,"16 mg, cycle 2, day 1, QDx3dQW 16 mg, read-out: Tmax, median",2.1 h
same,Cmax,"20 mg, cycle 1, day 1, 20 mg",154 ng/mL
same,AUC(0-t),"20 mg, cycle 1, day 1, 20 mg, read-out: AUC0–24h [%CV]",1260 ng·h/mL
same,Tmax,"20 mg, cycle 1, day 1, 20 mg, read-out: Tmax, median",2.1 h
same,half-life,"20 mg, cycle 1, day 1, 20 mg, read-out: t½ (converted)",6.5 h
same,Tmax,"20 mg, cycle 2, day 1, QW 20 mg, read-out: Tmax, median",4 h
same,Cmax,"30 mg, cycle 1, day 1, 30 mg",162 ng/mL
same,AUC(0-t),"30 mg, cycle 1, day 1, 30 mg, read-out: AUC0–24h [%CV]",1080 ng·h/mL
same,half-life,"30 mg, cycle 1, day 1, 30 mg, read-out: t½ (converted)",5.9 h
same,Cmax,"30 mg, cycle 2, day 1, QW 30 mg",133 ng/mL
same,AUC(0-t),"30 mg, cycle 2, day 1, QW 30 mg, read-out: AUC0–24h [%CV]",1120 ng·h/mL
same,Tmax,"30 mg, cycle 2, day 1, QW 30 mg, read-out: Tmax, median",4 h
same,half-life,"30 mg, cycle 2, day 1, QW 30 mg, read-out: t½ (converted)",5.7 h
same,Cmax,"40 mg, cycle 1, day 1, 40 mg",172 ng/mL
same,AUC(0-t),"40 mg, cycle 1, day 1, 40 mg, read-out: AUC0–24h [%CV]",1640 ng·h/mL
same,Tmax,"40 mg, cycle 1, day 1, 40 mg, read-out: Tmax, median",2.4 h
same,half-life,"40 mg, cycle 1, day 1, 40 mg, read-out: t½ (converted)",7.6 h
same,Cmax,"40 mg, cycle 2, day 1, QW 40 mg",232 ng/mL
same,AUC(0-t),"40 mg, cycle 2, day 1, QW 40 mg, read-out: AUC0–24h [%CV]",2220 ng·h/mL
same,half-life,"40 mg, cycle 2, day 1, QW 40 mg, read-out: t½ (converted)",6.4 h
same,Tmax,"range across all doses, read-out: Median Tmax",1 to 2.8 h
same,half-life,"range, 2–40 mg dose range, read-out: Mean plasma half-life",5.9 to 9.4 h
